Assay results: patent publication US20230365585A1, “BENZODIAZEPINE DERIVATIVES USEFUL IN TREATING A RESPIRATORY SYNCYTIAL VIRUS INFECTION” (priority 2020, published 2023)

How the values were obtained:
[1] = test system: RSV; settings: Antimicrobial Agents and Chemotherapy, September 2007, 3346-3353; cited from earlier work
[2] = test system: RSV A2; assay: RSV plaque reduction assay; format: cell-based, RSV (RSV A2 ECACC, 0709161v); settings: Hep-G2 cells, RSV A2, 2 days, mean of at least two experiments
Outline: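 Hep-G2 monolayers infected with 100 PFU/well RSV A2 premixed with eight compound dilutions, 2 h at 37° C, then overlaid with 0.8% CMC/2% FBS DMEM containing compound for 2 days. Plaques immunostained (HRP/TrueBlue) and counted; EC50 from % infection versus virus control, mean of at least two experiments.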

[3] = Cell cytotoxicity CC50; format: cell-based; settings: human; mean of at least two experiments
Source text: (§1) Plates were scanned and analysed using the Immunospot S6 Macro analyser, which is equipped with BioSpot analysis software for counting immunostained plaques (virospots). Plaque counts were used to calculate % infection relative to the mean of the plaque count in the virus control wells for RSV. […] Plaque EC50 and cell toxicity CC50 values are a mean of at least two experiments and figures are rounded to whole units.

[4] = Liver microsomal stability (rat); format: in vitro ADME; settings: 1 µM compound; for half-life at 1 µM: pooled liver microsomes, pH 7.4, 0.5 mg/mL protein, read-out: Liver Microsomal Stability t½
Method: (§2) Compounds were subjected to the following assays to investigate liver microsomal stability.
(§3) Pooled liver microsomes were purchased from a reputable commercial supplier and stored at -80° C. prior to use. Microsomes (final protein concentration 0.5 mg/mL), 0.1 M phosphate buffer pH 7.4 and test compound (final substrate concentration 1 µM; final DMSO concentration 0.25%) were pre-incubated at 37° C. prior to the addition of NADPH (final concentration 1 mM) to initiate the reaction. The final incubation volume was 50 µL. A control incubation was included for each compound tested where 0.1 M phosphate buffer pH 7.4 was added instead of NADPH (minus NADPH). Two control compounds were included with each species. All incubations were performed singularly for each test compound. Each compound was incubated for 0, 5, 15, 30 and 45 min. The control (minus NADPH) was incubated for 45 min only. The reactions were stopped by transferring incubate into acetonitrile at the appropriate time points, in a 1:3 ratio. The termination plates are centrifuged at 3,000 rpm for 20 min at 4° C. to precipitate the protein. Following protein precipitation, the sample supernatants were combined in cassettes of up to 4 compounds, internal standard added, and samples analysed by LC-MS/MS. From a plot of In peak area ratio (compound peak area/internal standard peak area) against time, the gradient of the line was determined. Subsequently, half-life (t½) and intrinsic clearance (CLint) were calculated.

[5] = Liver microsomal stability (dog); format: in vitro ADME; settings: 1 µM compound; for half-life at 1 µM: pooled liver microsomes, pH 7.4, 0.5 mg/mL protein, read-out: Liver Microsomal Stability t½
Method: as §2, §3

[6] = Liver microsomal stability (human); format: in vitro ADME; settings: 1 µM compound; for half-life at 1 µM: pooled liver microsomes, pH 7.4, 0.5 mg/mL protein, read-out: Liver Microsomal Stability t½
Method: as §2, §3

[7] = test system: Hep-G2 cells; assay: Cell cytotoxicity CC50; format: cell-based; settings: mean of at least two experiments
Source text: as §1

[8] = In vivo pharmacokinetics in rats; set-up: species or system rats [Sprague Dawley (SD)]; settings: male SD rats
Method: The pharmacokinetics of compounds were studied in vivo in rats at doses of 1 mg/kg (IV) and 10 mg/kg (PO).
Male rats [Sprague Dawley (SD)] surgically prepared with a jugular vein cannula were treated with experimental compounds via intravenous administration (IV; n=3; 1 mg/kg) or oral administration (PO; n=3; 10 mg/kg). Compounds were formulated as a solution in 40:60 dimethylacetamide:saline (IV administration) and a solution of 10% DMSO, 10% cremaphor in water (80%) (PO administration). […] Serial blood samples were collected via the cannula at 0.02, 0.08, 0.25, 0.5, 1, 2, 4, 6, 8 and 24 h post IV dosing of compound, and at 0.08, 0.25, 0.5, 1, 2, 4, 6, 8 and 24 h post oral dosing of compound, and plasma was prepared by centrifugation and stored immediately at -80° C. Samples were subsequently thawed, prepared for analysis by protein precipitation with acetonitrile, and analysed by tandem LCMS using electrospray ionisation using a matrix-matched calibration curve. PK parameters were calculated from the resulting data.

[9] = human respiratory syncytial virus, HepG2, 48 h

Molecule | EC50 [2, 9] [µM] | CC50 [3] [µM] | half-life at 1 µM [4] [h] | half-life at 1 µM [5] [h] | half-life at 1 µM [6] [h] | EC50 [2] [µM] | CC50 [7] [µM] | also measured
O=C(Nc1ccccc1F)N[C@H]1N=C(c2ccccc2)c2ccccc2NC1=O [RSV604] | – | – | – | – | – | – | – | anti-RSV activity [1]: sub-micromolar
O=C(N[C@H]1N=C(c2ccccc2)c2cccc(F)c2NC1=O)c1c(-c2ccccc2F)nn2c1OCCCC2 [Example 2, N-[(3S)-9-Fluoro-2-oxo-5-phenyl-1,3-dihydro-1,4-benzodiazepin-3-yl]-2-(2-fluorophenyl)-5,6,7,8-tetrahydropyrazolo[5,1-b][1,3]oxazepine-3-carboxamide] | 0.033 | > 25 | 0.853 | 5.42 | 6.05 | – | – | –
O=C(N[C@H]1N=C(c2ccccc2)c2cccc(F)c2NC1=O)c1c(-c2ccccc2F)nn2c1OCC(F)(F)CC2 [Example 28, 6,6-Difluoro-N-[(3S)-9-fluoro-2-oxo-5-phenyl-2,3-dihydro-1H-1,4-benzodiazepin-3-yl]-2-(2-fluorophenyl)-5H,6H,7H,8H-pyrazolo[3,2-b][1,3]oxazepine-3-carboxamide] | 0.045 | > 25 | 3.25 | 31 | 11.2 | – | – | –
CCNc1ccc(-c2nn3c(c2C(=O)N[C@H]2N=C(c4ccccc4)c4ccccc4NC2=O)OC(C)CCC3)c(F)n1 (single isomer, unassigned) [Example 10-2, (5S*)-2-[6-(ethylamino)-2-fluoropyridin-3-yl]-5-methyl-N-[(3S)-2-oxo-5-phenyl-1,3-dihydro-1,4-benzodiazepin-3-yl]-5,6,7,8-tetrahydropyrazolo[5,1-b][1,3]oxazepine-3-carboxamide] | – | – | – | – | – | 0.024 | > 25 | –
CCC1CCCn2nc(-c3ccc(C)nc3)c(C(=O)N[C@H]3N=C(c4ccccc4)c4ccccc4NC3=O)c2O1 (single isomer, unassigned) [Example 26-2, (5S*)-5-ethyl-2-(6-methylpyridin-3-yl)-N-[(3S)-2-oxo-5-phenyl-2,3-dihydro-1H-1,4-benzodiazepin-3-yl]-5H,6H,7H,8H-pyrazolo[3,2-b][1,3]oxazepine-3-carboxamide] | – | – | – | – | – | 0.329 | > 25 | –
N-((S)-9-fluoro-2-oxo-5-phenyl-2,3-dihydro-1H-benzo[b]azepin-3-yl)-2-(2-fluorophenyl)-5,6,7,8-tetrahydro-5,8-methanopyrazolo[5,1-b][1,3]oxazepine-3-carboxamide [Example 19] | – | – | – | – | – | 0.037 | > 25 | Liver Microsomal Stability t½ ([4]; rat liver microsomes, 0.5 mg/mL protein): 2.13 h; Liver Microsomal Stability t½ ([5]; dog liver microsomes, 0.5 mg/mL protein): 1.92 h; Liver Microsomal Stability t½ ([6]; human liver microsomes, 0.5 mg/mL protein): 1.23 h; C 8 h ([8]; 8 h, route not stated in the row): 0.11 µg/mL; IV t½ ([8]; IV 1 mg/kg): 2.30 h; PO AUClast ([8]; PO 10 mg/kg): 4.487 µg·h/mL; PO t½ ([8]; PO 10 mg/kg): 2.9 h; F ([8]; PO 10 mg/kg vs IV 1 mg/kg): 39.3%; Cmax ([8]; route not stated in the row, study IV 1 mg/kg, PO 10 mg/kg): 0.949 µg/mL; Cl ([8]; study IV 1 mg/kg, PO 10 mg/kg): 0.966 L/h/kg; Vd ([8]; study IV 1 mg/kg, PO 10 mg/kg): 2.8 L/kg
